These results are taken from publication PMC4974614, “Human native kappa opioid receptor functions not predicted by recombinant receptors: Implications for drug design” (Scientific Reports, 2016).

Assay [1] addresses T1, human κ receptor (Homo sapiens, UniProt P41145). The assay can be described thus: cell-based. The settings on record: for Emax: HEK293, read-out: TR-FRET Emax (%). For orientation: Time-resolved FRET reads energy transfer from a long-lived donor to a nearby acceptor.
Another assay relates to μ-opioid receptors. As to conditions: cited from earlier work.
For assay [2], the system named is human descending colon. The assay can be described thus: cells. It counts as cell-based.
For assay [3] the following is noted: human, in vivo; cited from earlier work.
Assay [4] deals with T2, mouse κ receptor (Mus musculus, UniProt P33534). The assay can be described thus: cell-based. The settings on record: HEK293, read-out: BRET Emax (%). In general terms: Bioluminescence resonance energy transfer reports proximity on the nanometre scale.
T2 sequence (P33534 whole entry): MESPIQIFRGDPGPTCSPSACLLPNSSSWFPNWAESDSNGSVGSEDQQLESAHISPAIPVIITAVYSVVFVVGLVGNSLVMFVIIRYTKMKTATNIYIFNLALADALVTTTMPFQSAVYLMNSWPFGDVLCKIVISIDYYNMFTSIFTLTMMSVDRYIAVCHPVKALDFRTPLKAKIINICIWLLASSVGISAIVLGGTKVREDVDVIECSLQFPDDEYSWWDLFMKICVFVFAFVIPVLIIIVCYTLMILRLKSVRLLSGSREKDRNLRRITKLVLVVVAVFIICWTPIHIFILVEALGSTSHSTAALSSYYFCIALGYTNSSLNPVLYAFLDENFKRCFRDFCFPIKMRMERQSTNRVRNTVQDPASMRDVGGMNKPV
Assay [5] concerns tetrodotoxin-sensitive Na+ channels. As to conditions: read-out: EC50, block of tetrodotoxin-sensitive Na+ channels; cited from earlier work.
Assay [6] concerns human isolated colon. The assay can be described thus: EFS-evoked cholinergically-mediated contractions of human isolated colon. The class given is cell-based. The settings on record: for inhibition at 1 µM: read-out: % inhibition of contractions evoked during EFS; for effect alone on responses to EFS: phentolamine 1 μM and propranolol 1 μM together, descending colon.
Assay [7] has as its target T2, mouse κ receptor. The class given is cell-based.
For another assay, the system named is mouse isolated colon. The assay can be described thus: EFS-evoked cholinergically-mediated contractions of mouse isolated colon. The settings on record: for Emax / EC50: Mus musculus; for Emax: read-out: Emax (%), inhibition of EFS-evoked after-contractions; for EC50: read-out: pEC50, inhibition of EFS-evoked after-contractions (converted). It counts as cell-based.

In assay [8] the target is T1, human κ receptor. The assay can be described thus: cell-based. As to conditions: for Emax: HEK293, read-out: BRET Emax (%).
Assay [9] concerns K+ channels in mouse epithelia. The settings on record: read-out: IC50, block of K+ channels; cited from earlier work.
For assay [10] the following is noted: in vivo; cited from earlier work.
In assay [11] the target is T1, human κ receptor. The class given is cell-based.
The subject of assay [12] is human descending colon. The assay can be described thus: Carbachol-evoked contractions of human descending colon.
Assay [13] has as its target T2, mouse κ receptor. The assay can be described thus: cell-based. The settings on record: HEK293, read-out: TR-FRET Emax (%).
A further assay relates to mouse proximal colon. The assay can be described thus: Carbachol-induced contractions of mouse proximal colon. It counts as cell-based. The procedure:
Changes in muscle tension were recorded using isometric force transducers (AD Instruments, Chalgrove, UK) on a data acquisition system (Biopac Systems Inc., Goleta, CA, USA). The strips were given 1 g tension and allowed to recover for 30 min during which time the bath solutions were changed every 15 min; this initial tension was previously determined as the optimum required to maximally detect EFS-evoked responses in both regions (data not shown). Electrical Field Stimulation (EFS) was applied at 5 Hz using a maximally-effective voltage (80 V) and 0.5 ms bipolar pulse duration […], given for 30 s every 120 s, for at least 1 hour before drug addition. These parameters of EFS consistently evoked nerve-mediated responses with a good signal-to-noise ratio over spontaneous muscle activity. After obtaining consistent responses, drugs were applied non-cumulatively to separate tissues (20 min contact); changes in resting muscle tension and responses to EFS were measured. Finally, any effects of the drugs on carbachol-induced contractions were examined by first obtaining consistent responses to a submaximally-effective concentration of carbachol (1 μM; 27 ± 9% max, 5 min contact; n = 4). The compounds were then added 5 min before application of carbachol (1 μM, 5 min contact), followed by washing, and this process was repeated at least once more.

In assay [14] the target is Recombinant human receptor. As to conditions: cited from earlier work.
Assay [15] concerns mouse κ receptors in COS-1 cells. The settings on record: read-out: IC50, radioligand binding; cited from earlier work.
The target in assay [16] is Recombinant human receptor. As to conditions: cited from earlier work. This is another data set of the same source.
Assay [17] has as its system human isolated colon. As to conditions: cited from earlier work.
In another assay the test system is κ receptor. As to conditions: cited from earlier work.

By Emax is commonly meant the maximal effect, on the per cent scale that the assay sets. The inhibition is the drop in the measured response relative to a control, in per cent.

Several values for one entry are separate records, joined by “and”; a condition that tells them apart may be missing. Identical values can stand only once. Counter-ions that a name gives are not always drawn. Like-named read-outs stand apart in the source and are kept apart here.

T1 sequence (P41145 whole entry): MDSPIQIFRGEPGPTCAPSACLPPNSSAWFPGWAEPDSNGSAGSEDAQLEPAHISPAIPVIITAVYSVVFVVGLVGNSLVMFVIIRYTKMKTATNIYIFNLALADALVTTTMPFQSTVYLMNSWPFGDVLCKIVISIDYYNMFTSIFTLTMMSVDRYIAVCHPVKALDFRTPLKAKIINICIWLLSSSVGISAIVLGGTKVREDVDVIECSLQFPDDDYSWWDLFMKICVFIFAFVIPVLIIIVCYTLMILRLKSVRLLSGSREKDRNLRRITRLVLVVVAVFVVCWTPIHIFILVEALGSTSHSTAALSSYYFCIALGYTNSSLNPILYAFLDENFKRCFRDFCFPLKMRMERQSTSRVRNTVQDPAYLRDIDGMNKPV

As for `CN(C(=O)C(c1ccccc1)c1ccccc1)[C@H](CN1CC[C@H](O)C1)c1ccccc1` [Asimadoline], the EC50 on human κ receptor [1] was 39.8 nM; in [5] it was 8400 nM; in the assay with mouse isolated colon, 7.94 nM; on human κ receptor [8] (BRET pEC50), 0.631 nM. For the same molecule, the Emax stood at 97 ± 2% at human κ receptor [1]; 99 ± 4% on mouse κ receptor [4]; 52 ± 7% in the assay with mouse isolated colon; 98 ± 5% on human κ receptor [8]; 96 ± 3% on mouse κ receptor [13]. In addition, in the assay on μ-opioid receptors, the “concentration activating μ-opioid receptors” value was 3 µM. The “maximum inhibition of the response to ICI204448 60 nM” value with human descending colon [2] is given as 19 ± 7%. Further, the IC50 in the assay on human descending colon [2] (Homo sapiens, read-out: pIC50, reduction of the response to ICI204448 60 nM (converted)) was 1.58 nM; in assay [9] it was 23700 nM. In addition, the “effect on colonic transit or postprandial motility” value in assay [3] is given as “not to affect colonic transit or postprandial motility”. The “Time to max effect” value with human isolated colon [6] is 40 ± 4 min. The “effect on baseline muscle tension” value in the assay on human isolated colon [6] is “Neither asimadoline nor ICI204448 changed baseline muscle tension”. Further, the “time to maximum inhibition” value with human isolated colon [6] was determined as 30 ± 5 min. Further, the inhibition at 1 µM with human isolated colon [6] (Homo sapiens) is -29 ± 4%. Moreover, the BIAS on mouse κ receptor [7] is recorded as 0.65; on human κ receptor [11] it was 0.60. In addition, the “reduction of contractions of the distal colon” value with mouse isolated colon was determined as 59 ± 13%. Further, the “time taken to achieve maximum activity” value in the assay with mouse isolated colon is on record as 17 ± 3 min. In addition, the “effect on sensation or pain caused by colonic distension” value in [10] is recorded as “reduced the sensation or pain caused by colonic distension”. Also, the “effect on contractions evoked by carbachol 1 μM” value in the assay on human descending colon [12] is reported as −10 ± 9%. In addition, in the assay with mouse proximal colon, the “effect on contractions induced by carbachol 1 μM” value is listed as 5 ± 7.

On to `CN(C(=O)Cc1ccc(Cl)c(Cl)c1)C(CN1CCCC1)c1cccc(OCC(=O)O)c1` (stereo not drawn) [ICI204448], for which the maximum response (Emax) at human κ receptor [1] turned out to be 98 ± 2%. The “G protein pEC50” value in assay [14] was 8.38 ± 0.09. In addition, the IC50 in assay [15] is 6.6 nM. In addition, the Emax on mouse κ receptor [4] amounted to 90 ± 4%. Moreover, in the assay on human isolated colon [6], the “Time to max effect” value was found to be 13 ± 3 min; the “effect on baseline muscle tension” value was “Neither asimadoline nor ICI204448 changed baseline muscle tension”; the “effect on relaxations evoked by EFS” value is 1 ± 7 % change from baseline EFS; the “pEC50, inhibition of contractions during EFS” value is listed as 8.0 ± 0.4. Further, the “time to maximum inhibition” value in the assay on human isolated colon [6] is given as 7 ± 1 min. For the same molecule, in the assay with human isolated colon [6] (Homo sapiens), the inhibition at 1 µM is -57 ± 10%. Also, the inhibition at 0.1 µM in the assay on human isolated colon [6] (Homo sapiens, read-out: inhibition of EFS-evoked contractions) worked out at 130 ± 29%. In the assay on mouse isolated colon, the “Emax (%), inhibition of EFS-evoked after-contractions” value came out at 57 ± 7%; the “reduction of contractions of the distal colon” value is 70 ± 5%; the “time taken to achieve maximum activity” value was found to be 7 ± 2 min; the Emax is 49 ± 8%. Moreover, in the assay on mouse isolated colon, the EC50 is 3.16 nM. In addition, the Emax on human κ receptor [8] came out at 100 ± 3%. In addition, in assay [16], the “Arrestin pEC50” value is listed as 8.48 ± 0.06 and the “biased activity towards the human κ receptor arrestin pathway” value is “only weak propensity for biased activity”. The “effect on contractions evoked by carbachol 1 μM” value in the assay with human descending colon [12] (100 nM, descending colon, no EFS) is reported as −9 ± 2%. Moreover, the maximal response (Emax) at mouse κ receptor [13] came to 92 ± 4%. Moreover, the “effect on contractions induced by carbachol 1 μM” value in the assay on mouse proximal colon (1 μM, proximal colon) was 0 ± 5 % initial carbachol response.

Regarding `COC(=O)[C@@H](N)CCCNC(N)=N[N+](=O)[O-]` [L-NAME, Nω-nitro-L-arginine methyl ester hydrochloride], the “effect on relaxations during EFS” value in the assay with human isolated colon [6] (300 μM, ascending and descending colon) is recorded as “prevented”. Moreover, the “effect on EFS-evoked relaxations” value with mouse isolated colon (300 μM, proximal and distal colon) is “abolished”.

Turning to `CN1[C@@H]2CC[C@H]1C[C@@H](OC(=O)C(CO)c1ccccc1)C2` (stereo partly drawn) [atropine], in the assay on human isolated colon [17], the attenuation of after-contractions is on record as 56 ± 12%. Further, in the assay with human isolated colon [6], the “effect on contractions during EFS” value is “prevented”. In the assay on mouse isolated colon, the “increase of EFS-evoked relaxations” value amounted to 61 ± 13% and the reduction of after-contractions is 81 ± 5%.

Take `C[N+](C)(C)CCOC(N)=O` [carbachol]: the “contraction as % of maximum contraction to carbachol” value in the assay with human descending colon [12] (1 μM, 5 min contact) is given as ~ 50%. Also, in the assay with mouse proximal colon (1 μM, 5 min contact), the “contraction as % max” value came out at 27 ± 9 % max.

Consider `CC[C@](COCc1cc(OC)c(OC)c(OC)c1)(c1ccccc1)N(C)C` [fedotozine], for which the “selectivity for the κ receptor over other opioid receptors” value in the assay on κ receptor is recorded as ~2 fold.

For the molecule `Oc1ccc2c3c1O[C@H]1c4[nH]c5c(c4C[C@@]4(O)[C@@H](C2)N(CC2CC2)CC[C@]314)C[C@@]1(O)[C@H]2Cc3ccc(O)c4c3[C@@]1(CCN2CC1CC1)[C@H]5O4` [nor-binaltorphamine], in the assay on human isolated colon [6], the “effect by itself on contractions to EFS” value is listed as “by itself did not affect contractions to EFS”, the “intercept of Schild analysis” value is recorded as −9.7 and the “slope of Schild analysis” value is reported as 0.53 ± 0.11. For the same molecule, in the assay on mouse isolated colon, the “effect by itself on the response to EFS” value is reported as “did not by itself change the response to EFS”; the “effect on inhibition by ICI204448 and asimadoline” value is recorded as “antagonised”.

In the case of `Cc1ccc(N(CC2=NCCN2)c2cccc(O)c2)cc1` [phentolamine], the “effect alone on responses to EFS” value with human isolated colon [6] is recorded as 2 ± 3 % change from baseline EFS.

As to `CC(C)NCC(O)COc1cccc2ccccc12` (stereo not drawn) [propranolol], the “effect alone on responses to EFS” value with human isolated colon [6] is given as 2 ± 3 % change from baseline EFS.

Take `NC1=N[C@H](O)[C@H]2[C@H]3O[C@]4(O)O[C@@H]([C@@H](O)[C@@]2(N1)[C@@H]4O)[C@]3(O)CO` [tetrodotoxin]: the “effect on responses evoked by EFS” value in the assay with human isolated colon [6] is “prevented”. Also, in the assay with mouse isolated colon, the “effect on EFS-evoked responses (relaxation, after-contraction)” value was “prevented”.

As for Dynorphin 1-13, the “G protein pEC50” value in [14] is on record as 8.68 ± 0.07. In the assay on human isolated colon [6], the “% inhibition of contractions evoked during EFS” value is -30% and -35%; the “Time to max effect” value is 17 min and 11 min. Further, the “Arrestin pEC50” value in assay [16] is listed as 7.01 ± 0.07.
